Assay: Antioxidant assay: DPPH radical-scavenging activity
Details: read-out: Antioxidant activity IC50 (DPPH); DPPH method

Compound | IC50 [µM]
kaempferol-3-O-rutinoside [Compound 11] | 129 ± 9.2
O=c1c(O)c(-c2ccc(O)cc2)oc2cc(O[C@@H]3O[C@H](CO)[C@@H](O)[C@H](O)[C@H]3O)cc(O)c12 [Compound 7, kaempferol-7-O-β-D-glucopyranoside] | 77.6 ± 2.4
O=c1c(O[C@@H]2O[C@H](CO)[C@@H](O)[C@H](O)[C@H]2O)c(-c2ccc(O)cc2)oc2cc(O[C@@H]3O[C@H](CO)[C@@H](O)[C@H](O)[C@H]3O)cc(O)c12 [Compound 8, kaempferol-3,7-di-O-β-D-glucopyranoside] | 407 ± 22.1
O=c1c(O[C@@H]2O[C@H](CO)[C@@H](O)[C@H](O)[C@H]2O)c(-c2ccc(O)cc2)oc2cc(O)cc(O)c12 [Compound 6, astragalin] | 100 ± 3.2
C[C@@H]1O[C@@H](OC[C@H]2O[C@@H](Oc3c(-c4ccc(O)cc4)oc4cc(O)cc(O)c4c3=O)[C@H](O[C@@H]3O[C@H](CO)[C@@H](O)[C@H](O)[C@H]3O)[C@@H](O)[C@@H]2O)[C@H](O)[C@H](O)[C@H]1O [Compound 4, kaempferol-3-O-β-D-glucopyranosyl-(1 → 2)-[α-L-rhamnopyranosyl-(1 → 6)]-β-D-glucopyranoside] | 257 ± 19.9
O=c1c(O)c(-c2ccc(O)cc2)oc2cc(O)cc(O)c12 [Compound 5, kaempferol] | 36.3 ± 1.1
C[C@@H]1O[C@@H](O[C@H]2[C@H](Oc3c(-c4ccc(O)cc4)oc4cc(O)cc(O)c4c3=O)O[C@H](CO[C@@H]3O[C@H](CO)[C@@H](O)[C@H](O)[C@H]3O)[C@@H](O)[C@@H]2O)[C@H](O)[C@H](O)[C@H]1O [Compound 2, kaempferol-3-O-β-D-glucopyranosyl-(1 → 6)-[α-L-rhamnopyranosyl-(1 → 2)]-β-D-glucopyranoside] | 170 ± 5.2
C[C@@H]1O[C@@H](OC[C@H]2O[C@@H](O[C@H]3[C@H](Oc4c(-c5ccc(O)cc5)oc5cc(O)cc(O)c5c4=O)O[C@H](CO)[C@@H](O)[C@@H]3O)[C@H](O)[C@@H](O)[C@@H]2O)[C@H](O)[C@H](O)[C@H]1O [Compound 10, kaempferol-3-O-α-L-rhamnopyranosyl-(1 → 6)-β-D-glucopyranosyl-(1 → 2)-β-D-glucopyranoside] | 209 ± 7.3
O=C1O[C@H]([C@@H](O)CO)C(O)=C1O [V c, L-ascorbic acid, reference compound] | 33.9 ± 1.1

From article PMC9080520 (RSC Advances, 2018)
